From ChEMBL document CHEMBL5365457, “Selective HDAC3 Inhibitors with Potent In Vivo Antitumor Efficacy against Triple-Negative Breast Cancer” (J Med Chem, 2023)
The source made the active and inactive calls. The rule behind the calls is not given here.

Tests used:
4T1 [1] = test: Antitumor activity against mouse 4T1 cells implanted in BALB/c mouse assessed as tumor growth inhibition at 15 mg/kg, ip measured on day 14; format: functional; conditions: 4T1, 336 h, time 14 day, read-out: TGI
MDA-MB-231 [2] = test: Cytotoxicity against human MDA-MB-231 cells assessed as inhibition of cell growth incubated for 72 hrs by MTT assay; format: functional, cell-based; conditions: MDA-MB-231, 72 h
[3] = Toxicity in BALB/c mouse implanted with mouse 4T1 cells assessed as spleen damage at 5 to 15 mg/kg, ip measured after 21 days by H and E staining based assay; format: organism-based; conditions: in vivo, 504 h, dose 5-15 mg/kg, time 21 day
[4] = Toxicity in BALB/c mouse implanted with mouse 4T1 cells assessed as heart damage at 5 to 15 mg/kg, ip measured after 21 days by H and E staining based assay; format: organism-based; conditions: in vivo, 504 h, dose 5-15 mg/kg, time 21 day
4T1 [5] = test: Antitumor activity against mouse 4T1 cells implanted in BALB/c mouse assessed as tumor growth inhibition at 15 mg/kg, ip measured on day 21; format: functional; conditions: 4T1, 504 h, time 21 day, read-out: TGI
[6] = Cytotoxicity against Oxaliplatin-resistant human MDA-MB-231 cell assessed as reduction in cell viability incubated for 72 hrs by MTT assay; format: functional, cell-based; conditions: Oxaliplatin-resistant MDA-MB-231 cell
MDA-MB-453 = test: Cytotoxicity against human MDA-MB-453 cells assessed as inhibition of cell growth incubated for 72 hrs by MTT assay; format: functional, cell-based; conditions: MDA-MB-453, 72 h
[7] = Apparent volume of distribution in Wistar rat at 15 mg/kg, ip measured upto 24 hrs by HPLC analysis; format: ADME, organism-based; conditions: in vivo
[8] = Half life in Wistar rat at 15 mg/kg, ip measured upto 24 hrs by HPLC analysis; format: ADME, organism-based; conditions: in vivo
[9] = Apparent oral clearance in Wistar rat at 15 mg/kg, ip measured upto 24 hrs by HPLC analysis; format: ADME, organism-based; conditions: in vivo
4T1 [10] = test: Antitumor activity against mouse 4T1 cells implanted in BALB/c mouse assessed as tumor growth inhibition at 15 mg/kg, ip measured on day 7; format: functional; conditions: 4T1, 168 h, time 7 day, read-out: TGI
MDA-MB-231 [11] = test: Cytotoxicity against wild type human MDA-MB-231 cells assessed as reduction in cell viability incubated for 72 hrs by MTT assay; format: functional, cell-based; conditions: MDA-MB-231, 72 h
[12] = Cytotoxicity against human MCF-10A cells assessed as inhibition of cell growth incubated for 72 hrs by MTT assay; format: toxicity, cell-based
MCF7 = test: Cytotoxicity against human MCF7 cells assessed as inhibition of cell growth incubated for 72 hrs by MTT assay; format: functional, cell-based; conditions: MCF7, 72 h
4T1 [13] = test: Antitumor activity against mouse 4T1 cells implanted in BALB/c mouse assessed as reduction in tumor volume at 5 mg/kg, ip administered 5 times a week for 21 days (reference value: 51.91 +/-7.45 mm3); format: functional; conditions: time 21 day
[14] = AUC (0 to t) in Wistar rat at 15 mg/kg, ip measured upto 24 hrs by HPLC analysis; format: ADME, organism-based; set-up: dose 15 mg/kg, time < 24 hrs, route ip; conditions: in vivo
4T1 [15] = test: Cell cycle arrest in mouse 4T1 cells assessed as accumulation of cells at G1 phase at 1.54 uM incubated for 72 hrs by flow cytometry; format: functional
4T1 [16] = test: Cell cycle arrest in mouse 4T1 cells assessed as accumulation of cells at G1 phase at 7.72 uM incubated for 72 hrs by flow cytometry; format: functional
[17] = Cytotoxicity against human HCEC cells assessed as inhibition of cell growth incubated for 72 hrs by MTT assay; format: toxicity, cell-based; conditions: human, HCEC cells
4T1 [18] = test: Induction of apoptosis in mouse 4T1 cells at 1.54 uM incubated for 72 hrs by annexin/PI staining based flow cytometry analysis (reference value: 1.35%); format: functional
4T1 [19] = test: Antitumor activity against mouse 4T1 cells implanted in BALB/c mouse assessed as reduction in tumor volume at 15 mg/kg, ip administered 5 times a week for 21 days (reference value: 52.25 +/-13.24 mm3); format: functional; conditions: time 21 day
4T1 [20] = test: Antitumor activity against mouse 4T1 cells implanted in BALB/c mouse assessed as reduction in tumor weight at 15 mg/kg, ip administered 5 times a week for 21 days; format: functional; conditions: time 21 day
[21] = AUC (0 to infinity) in Wistar rat at 15 mg/kg, ip measured upto 24 hrs by HPLC analysis; format: ADME, organism-based; set-up: dose 15 mg/kg, time < 24 hrs, route ip; conditions: in vivo
4T1 [22] = test: Antitumor activity against mouse 4T1 cells implanted in BALB/c mouse assessed as increase in number of lung nodules at 15 mg/kg, ip measured for 7 days by H and E staining based assay; format: functional, organism-based; conditions: time 7.0 day
[23] = AUMC (0 to infinity) in Wistar rat at 15 mg/kg, ip measured upto 24 hrs by HPLC analysis; format: ADME, organism-based; conditions: in vivo
4T1 [24] = test: Cell cycle arrest in mouse 4T1 cells assessed as accumulation of cells at G1 phase at 38.6 uM incubated for 72 hrs by flow cytometry; format: functional
4T1 [25] = test: Antitumor activity against mouse 4T1 cells implanted in BALB/c mouse assessed as increase in apoptosis in tumor tissue at 5 to 15 mg/kg, ip by TUNEL staining based microscopic analysis; format: functional, organism-based; conditions: dose 5-15 mg/kg
[26] = Cmax in Wistar rat at 15 mg/kg, ip measured upto 24 hrs by HPLC analysis; format: ADME, organism-based; set-up: dose 15 mg/kg, time < 24 hrs, route ip; conditions: in vivo
[27] = Toxicity in BALB/c mouse implanted with mouse 4T1 cells assessed as kidney damage at 5 to 15 mg/kg, ip measured after 21 days by H and E staining based assay; format: organism-based; conditions: in vivo, 504 h, dose 5-15 mg/kg, time 21 day
[28] = MRT (0 to infinity) in Wistar rat at 15 mg/kg, ip measured upto 24 hrs by HPLC analysis; format: ADME, organism-based; conditions: in vivo
[29] = Tmax in Wistar rat at 15 mg/kg, ip measured upto 24 hrs by HPLC analysis; format: ADME, organism-based; conditions: in vivo
4T1 [30] = test: Cytotoxicity against mouse 4T1 cells assessed as inhibition of cell growth incubated for 72 hrs by MTT assay; format: functional, cell-based; conditions: 4T1, 72 h
[31] = Toxicity in BALB/c mouse implanted with mouse 4T1 cells assessed as liver damage at 5 to 15 mg/kg, ip measured after 21 days by H and E staining based assay; format: organism-based; conditions: in vivo, 504 h, dose 5-15 mg/kg, time 21 day
4T1 [32] = test: Antitumor activity against mouse 4T1 cells implanted in BALB/c mouse assessed as reduction in Ki-67 expression in tumor tissue at 5 to 15 mg/kg, ip measured for 21 days by fluorescence based microscopic analysis; format: functional, organism-based; conditions: dose 5-15 mg/kg, time 21.0 day

CCCCNNC(=O)c1ccc(Br)cc1
inhibition in vivo at 15 mg/kg (4T1 [1]): 38.4%
IC50 (MDA-MB-231 [2]): 24.7 µM
Activity [3]: Non-Toxic
Activity [4]: Non-Toxic
inhibition in vivo at 15 mg/kg (4T1 [5]): 39.5%
IC50 [6]: 27.4 µM
IC50 (MDA-MB-453): 25.3 µM
Vz/F [7]: 7.65 (mg/kg)/(ug/ml)
half-life [8]: 5.18 h
CL/F [9]: 1.03 (mg/kg)/(ug/ml).hr
inhibition in vivo at 15 mg/kg (4T1 [10]): 55.6%
IC50 (MDA-MB-231 [11]): 24.7 µM
IC50 at 72 h [12]: 99.3 µM
IC50 (MCF7): 15.4 µM
Activity (4T1 [13]): 1005.32 mm3
AUC(0-t) at 24 h [14]: 14500 ng·h/mL
Activity (4T1 [15]): 50.4%
Activity (4T1 [16]): 41.4%
IC50 at 72 h [17]: 95.4 µM
Activity (4T1 [18]): 30.4%
Activity (4T1 [19]): 520.32 mm3
Activity (4T1 [20]): 0.29 g
AUC(0-inf) [21]: 14700 ng·h/mL
Activity (4T1 [22]): inactive
AUMC [23]: 53.64 ug/ml.hr^2
Activity (4T1 [24]): 52.3%
Activity (4T1 [25]): Active
Cmax [26]: 5240 ng/mL
Activity [27]: Non-Toxic
MRT inf [28]: 3.66 h
Tmax [29]: 2 h
IC50 (4T1 [30]): 7.72 µM
Activity [31]: Non-Toxic
Activity (4T1 [32]): Active
